# According to patent US6777408B1, “Pyrido-thieno-diazepines method for the production thereof and pharmaceutical compositions containing said pyrido-thieno-diazepines” (Societe de Conseils de Recherches et d'Applications …, priority 1999, dated 2004):
row,Structure (SMILES),melting point
1,COc1ccc(NC(=S)N2CCc3c(sc4c3C(c3ccccc3Cl)=NCC(=S)N4CCc3ccccc3)C2)c([N+](=O)[O-])c1,152 °C
2,"COc1ccc(NC(=S)N2CCc3c(sc4c3C(c3ccccc3Cl)=NC(OC(=O)CCCCCCN)C(=O)N4CCc3ccccc3)C2)c([N+](=O)[O-])c1 (stereo not drawn) [Example 8, 3-(7-amino-1-oxo-heptyloxy)-5-(2-chlorophenyl)-1,2,3,6,7,9-hexahydro-N-(4-methoxy-2-nitrophenyl)-2-oxo-1-(2-phenylethyl)-8H-pyrido[4′,3′:4,5]thieno[2,3-e]-1,4-diazepine-8-carbothioamide]",90 to 95 °C
3,"O=C1CNC(c2ccccc2Cl)c2c(sc3c2CCNC3)N1CCc1ccccc1 (stereo not drawn) [Example 13, 5-(2-chlorophenyl)-1,3,4,5,6,7,8,9-octahydro-1-(2-phenylethyl)-2H-pyrido[4′,3′:4,5]thieno[2,3-e]-1,4-diazepine-2-one]",128 to 130 °C
